GI50 and IC50 data for 1 compound are collected here from patent publication US8586591B2, “Aminopyrazine derivative and medicine” (Nippon Shinyaku Co., Ltd., priority 2009, dated 2013).

Assay [1] concerns the target BaF3 cells into which JAK2 V617F gene was introduced (Homo sapiens, UniProt O60674, V617F, cells depend on it). Nature of the assay: Test 2: growth inhibitory action against variant JAK2 expressed cells (MTT method). To be noted: incubation for 3 days, triplicate, read-out: concentration of the test material which inhibited 50% of the cell growth (IC50). It is filed as cell-based. On the procedure: Test 2: Growth inhibitory action against variant JAK2 expressed cells
BaF3 cells into which JAK2 V617F gene was introduced ([…]) were inoculated on a 96-well plate in an amount of 1×10^3 cells/well and allowed to stand in a CO2 incubator. Next day, the test material was added to the cells. The test material was serially diluted with DMSO to give 10 mM, 6 mM, 3 mM, 1 mM, 600 μM, 300 μM, 100 μM, 60 μM, 30 μM, or 10 μM solution. This was diluted 100 times with distilled water to give 100 μM, 60 μM, 30 μM, 10 μM, 6 μM, 3 μM, 1 μM, 600 nM, 300 nM, or 100 nM solution. This solution of test material was added to the well in an amount of 10 μl/well. As a negative control, 1% DMSO solution was added to the well in an amount of 10 μl/well. In the above operation, the final concentration of the test material became 10 μM, 6 μM, 3 μM, 1 μM, 600 nM, 300 nM, 100 nM, 60 nM, 30 nM, 10 nM, or 0 nM (0.1% DMSO solution). The addition of the test material solution to each well was made in triplicate.
After continuous incubation for 3 days, the viable count was determined by an MTT method. The MTT method was carried out as follows. First, 10 μl each of solution containing 5 mg/ml of MTT (3-(4,5-dimethylthiazol-2-yl)-2,5-diphenyltetrazolium bromide) was added to each well. The plate was allowed to stand in a CO2 incubator for 4 hours, and then 100 μl of 0.04N HCl/2-propanol solution was added to each well to stop the reaction. The generated MTT-formazan was dissolved well with a multi-channel pipette, and the absorbance at 595 nm was measured with reference to that at 655 nm (Thermo Co.; Multiskan FC). Non-linear regression analysis was made by means of a SAS system (SAS Institute Inc.), and the concentration (IC50) of the test material which inhibited 50% of the cell growth was estimated.

Assay [2] deals with T1, JAK3 tyrosine kinase (Homo sapiens, UniProt P52333).
T1 construct: purchased Carnabioscience Co
T1 sequence (P52333 1-1124): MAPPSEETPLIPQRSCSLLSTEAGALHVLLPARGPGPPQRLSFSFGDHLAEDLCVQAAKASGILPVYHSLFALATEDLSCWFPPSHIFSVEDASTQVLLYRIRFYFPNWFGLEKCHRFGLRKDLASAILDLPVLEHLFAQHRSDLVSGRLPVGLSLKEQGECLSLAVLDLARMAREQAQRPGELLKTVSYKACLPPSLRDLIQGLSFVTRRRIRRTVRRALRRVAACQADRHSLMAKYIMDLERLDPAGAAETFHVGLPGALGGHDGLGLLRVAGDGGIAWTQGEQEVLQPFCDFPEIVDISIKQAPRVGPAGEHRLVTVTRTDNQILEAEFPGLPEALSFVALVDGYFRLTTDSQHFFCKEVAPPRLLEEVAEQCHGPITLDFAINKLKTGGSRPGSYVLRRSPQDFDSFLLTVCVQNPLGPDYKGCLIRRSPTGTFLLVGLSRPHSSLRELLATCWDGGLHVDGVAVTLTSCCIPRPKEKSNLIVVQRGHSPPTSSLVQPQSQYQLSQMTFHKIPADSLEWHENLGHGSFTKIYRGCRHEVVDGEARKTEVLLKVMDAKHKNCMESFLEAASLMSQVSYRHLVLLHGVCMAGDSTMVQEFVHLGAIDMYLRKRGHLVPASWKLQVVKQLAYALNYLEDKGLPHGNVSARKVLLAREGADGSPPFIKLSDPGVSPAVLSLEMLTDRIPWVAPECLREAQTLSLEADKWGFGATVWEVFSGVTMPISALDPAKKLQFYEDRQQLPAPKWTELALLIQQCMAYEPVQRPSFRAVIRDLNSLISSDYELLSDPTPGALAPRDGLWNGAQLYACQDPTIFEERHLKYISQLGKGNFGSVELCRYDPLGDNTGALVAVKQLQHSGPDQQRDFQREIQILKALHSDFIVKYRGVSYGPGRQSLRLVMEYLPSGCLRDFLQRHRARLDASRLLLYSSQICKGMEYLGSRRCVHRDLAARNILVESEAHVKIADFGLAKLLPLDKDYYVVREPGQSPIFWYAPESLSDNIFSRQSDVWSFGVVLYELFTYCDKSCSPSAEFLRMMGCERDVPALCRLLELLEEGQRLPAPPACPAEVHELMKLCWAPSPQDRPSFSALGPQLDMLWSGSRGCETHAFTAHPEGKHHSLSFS
Nature of the assay: Test 1: inhibitory activity to JAK3 tyrosine kinase (ELISA). It is filed as biochemical. To be noted: 25 μM ATP in substrate solution, 30° C. for 1 hour, n=2. In a few lines:
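ELISA of JAK3 kinase activity with absorbance read at 450 nm. Compounds were tested from DMSO dilution series at 100-fold the measurement concentrations (1000–0.01 μM), diluted up to 20 times in assay buffer, against a DMSO negative control. IC50 was estimated by non-linear regression of absorbance.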

The target of assay [3] is T2, JAK2 tyrosine kinase (Homo sapiens, UniProt O60674).
T2 construct: purchased Carnabioscience Co
T2 sequence (O60674 whole entry): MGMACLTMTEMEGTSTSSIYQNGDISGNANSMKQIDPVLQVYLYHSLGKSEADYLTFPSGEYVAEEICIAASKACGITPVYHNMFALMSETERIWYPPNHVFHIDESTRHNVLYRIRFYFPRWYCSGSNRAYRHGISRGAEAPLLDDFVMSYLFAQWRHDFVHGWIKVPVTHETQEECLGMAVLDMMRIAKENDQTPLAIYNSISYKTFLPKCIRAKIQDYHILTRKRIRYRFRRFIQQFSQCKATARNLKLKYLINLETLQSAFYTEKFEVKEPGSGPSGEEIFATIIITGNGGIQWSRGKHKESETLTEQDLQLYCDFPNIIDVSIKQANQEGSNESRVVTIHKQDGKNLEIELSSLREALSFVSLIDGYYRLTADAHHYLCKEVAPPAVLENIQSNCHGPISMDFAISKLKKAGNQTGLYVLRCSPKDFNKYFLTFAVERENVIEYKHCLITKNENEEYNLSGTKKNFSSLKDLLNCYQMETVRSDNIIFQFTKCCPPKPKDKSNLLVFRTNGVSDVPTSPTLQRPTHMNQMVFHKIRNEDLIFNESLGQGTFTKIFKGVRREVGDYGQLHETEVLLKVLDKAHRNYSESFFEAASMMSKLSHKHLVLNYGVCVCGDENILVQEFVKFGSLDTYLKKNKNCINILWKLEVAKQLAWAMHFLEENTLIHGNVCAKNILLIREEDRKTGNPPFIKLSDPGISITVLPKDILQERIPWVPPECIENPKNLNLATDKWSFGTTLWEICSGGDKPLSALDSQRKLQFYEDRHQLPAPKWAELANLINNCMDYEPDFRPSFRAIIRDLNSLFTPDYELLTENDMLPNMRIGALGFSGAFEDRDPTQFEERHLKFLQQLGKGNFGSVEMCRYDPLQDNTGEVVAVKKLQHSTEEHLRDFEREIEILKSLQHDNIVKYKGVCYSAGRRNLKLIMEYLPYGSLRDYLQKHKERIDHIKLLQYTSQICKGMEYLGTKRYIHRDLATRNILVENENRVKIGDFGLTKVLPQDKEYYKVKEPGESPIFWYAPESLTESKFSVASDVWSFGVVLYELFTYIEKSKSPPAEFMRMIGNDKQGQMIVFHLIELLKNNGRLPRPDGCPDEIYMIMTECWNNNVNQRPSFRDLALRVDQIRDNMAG
Nature of the assay: Test 1: inhibitory activity to JAK2 tyrosine kinase (ELISA). It is filed as biochemical. To be noted: 25 μM ATP in substrate solution, 30° C. for 1 hour, n=2. In a few lines: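 Human JAK2 (diluted to 0.75 nM before addition) phosphorylated a biotinylated peptide on streptavidin plates for 1 h at 30 °C. The substrate mix held 625 nM peptide, 25 μM ATP and 25 mM MgCl2 in 15 mM Tris pH 7.5, 0.01% Tween-20 and 1 mM DTT. Phosphotyrosine was detected by HRP antibody/TMB at 450 nm, and IC50 was obtained by non-linear regression; duplicates were run.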

BaF3 cells into which JAK2 V617F gene was introduced, sequence (O60674 whole entry V617F): as the sequence (O60674 whole entry) above, with V617F counted along it

As for `CC(=O)NCC1CN(c2cc(Nc3cnccn3)nc(N[C@@H](C)c3ccc(F)cc3)n2)C1` [Example 232, (S)—N-[(1-{2-[1-(4-Fluorophenyl)ethylamino]-6-(pyrazin-2-ylamino)pyrimidin-4-yl}azetidin-3-yl)methyl]acetamide], the GI50 in assay [1] amounted to 0.088 µM. Moreover, the IC50 in assay [2] worked out at 0.032 µM; in assay [3] it was 0.00055 µM.
